The target of experiment [1] is T1, recombinant hTREX1(1-242)WT (hT1) (Homo sapiens, UniProt Q9NSU2).
T1 construct: recombinant hTREX1(1-242)^WT
T1 sequence (Q9NSU2 1-242): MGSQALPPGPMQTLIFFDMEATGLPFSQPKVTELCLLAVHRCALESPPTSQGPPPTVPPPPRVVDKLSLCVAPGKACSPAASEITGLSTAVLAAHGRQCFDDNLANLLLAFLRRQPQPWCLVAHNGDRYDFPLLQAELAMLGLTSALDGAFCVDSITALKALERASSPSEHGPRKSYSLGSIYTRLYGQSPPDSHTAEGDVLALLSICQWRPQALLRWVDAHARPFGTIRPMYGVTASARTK
Put plainly: fluorescence-based exonuclease assay, hTREX1 IC50 and HTS. The format is biochemical. The method, then: FIG. 1: Determining IC50 of Candidate Compounds. […] Standard time-course reactions were prepared in 150 µL volumes containing vehicle or indicated concentrations of inhibitor (Panel A= 0.1-10 µM; Panel C= 1-50 µM), incubated 1 hr at room temperature, and 20 µL samples of each reaction taken at time-points of 0, 5, 10, 20, 30, 45, & 60 minutes and quenched in 20 µL of 15X SYBR Green. Fluorescence was measured, and fluorescence versus time plots were normalized to maximal initial fluorescence and background fluorescence. Plots were fitted with nonlinear regression, then initial velocities of each reaction interpolated and normalized to vehicle-only control reactions to give percent activity. Plots of inhibitor concentration versus percent activity were fit with nonlinear regression to interpolate compound IC50. Plots were generated in Prism (GraphPad) and combined in PowerPoint. Active compounds had IC50 determined in at least three separate experiments. Panels E-F: Gel Assay Validation of Hit Compound IC50. Several hit compounds, including those shown, had their IC50 confirmed via gel assay to validate efficacy of the fluorescence-based biochemical assay. Results of the gel and fluorescence assays were in agreement for all compounds tested. Standard time-course reactions containing nicked plasmid were prepared in 150 µL volumes with the indicated concentrations of inhibitor, and incubated at room temperature. Reaction samples were taken at indicated times, quenched, dried in vacuo, resuspended, then visualized by agarose gel electrophoresis. Control lanes containing supercoiled dsDNA plasmid (‘Plasmid’) and undegraded nicked dsDNA plasmid (‘Nicked’) are included. Low-MW residual bands are ssDNA plasmid leftover from TREX1 exonuclease activity.
We altered a reported fluorescence-based exonuclease assay^17,23 for the purposes of HTS. The assay parameters were optimized to limit materials use and maximize the dynamic range of the assay readout. We used this assay to perform a HTS of the three mentioned libraries against recombinant hTREX1(1-242)^WT, hereafter abbreviated as ‘hT1’. In the case of all libraries, compounds eliciting ≤50% activity at their indicated screening concentrations were identified as ‘candidates’.
The biochemical assay used for HTS was also applied to determining candidate IC50. Briefly, time-course reactions were performed for a range of concentrations for each candidate, and plots of fluorescence vs time were normalized to the initial fluorescence of the reaction and the plate-wide background fluorescence. This normalization helped address compounds with inherent effects on the fluorescent readout. Initial velocities were calculated from normalized plots and used to calculate percent activities relative to vehicle-only control reactions. Standard dose-response curves were then constructed to interpolate candidate IC50. […] Candidates that initially tested with IC50 ≤100 µM had their IC50 redetermined in two additional, independent experiments. […] To validate the efficacy of the fluorescence-based assay at determining IC50, several of the hit compounds had their IC50 confirmed using a gel assay previously described by our lab^23. Briefly, a dsDNA plasmid is nicked, the substrate is incubated with TREX1 which degrades off (partially or completely) the nicked strand, and the reaction is quenched in ethanol, dried in vacuo, and visualized via agarose gel electrophoresis. Example data of these validation assays is provided (FIG. 1, Panels E-F).

A further experiment addresses T2, hT1 (Homo sapiens, UniProt Q9NSU2).
T2 construct: recombinant hTREX1(1-242)^WT
T2 sequence (Q9NSU2 1-242): T1 sequence (Q9NSU2 1-242)
As to the kind of experiment: jump-dilution reversibility of inhibition. The format is biochemical. Particulars: for reversibility classification: by IC50 ratio of jump-dilution. As to the method: FIG. 4: Reversibility of Inhibition for Lead Compounds. Panel A: Summary chart of the results for each lead compound. IC50 ratios were calculated by dividing the […]. An IC50 ratio of 10 is expected for irreversible inhibitors, and the results were classified as follows: ≥ 5.0 → Irreversible, 2.0-5.0 → Ambiguous, 0.5-2.0 → Reversible. Panels B-G: Standard IC50 experiments were conducted with various concentrations of each lead compound. However, before enzyme addition to the reaction components the inhibitor or vehicle was pre-incubated with either the reaction components at ~1X the final concentration (‘Reaction Pre-Incubation’) or the enzyme at ~10X the final concentration (‘Enzyme Pre-Incubation’). The enzyme and reaction components were then combined to initiate reactions, and IC50 calculated as discussed earlier. TIM190 was included as an example of an irreversible inhibitor. Plots were generated in Prism (GraphPad), and figure was assembled in PowerPoint.
To determine whether our leads’ inhibition mechanisms were reversible, we utilized a strategy known as a ‘jump-dilution′^76. With this strategy, an inhibitor is initially incubated with the target at a high concentration, then, the inhibitor and target are diluted into reaction mix and the potency of the inhibitor is compared to a similar reaction without the pre-incubation step. If an inhibitor is covalent, time-dependent (slow-binding), or otherwise irreversible, then it will display potency consistent with the higher initial concentration, while reversible inhibitors’ potency is not meaningfully affected by the pre-incubation. We performed jump dilution experiments for our leads with our earlier described biochemical assay (FIG. 3). Under our conditions, irreversible inhibitors were expected to display a 10-fold potency increase in the jump-dilution reactions.

Setting [2] is: experiment 1, read-out: IC50 #1.
Setting [3] is: experiment 2, read-out: IC50 #2.
Setting [4] is: experiment 3, read-out: IC50 #3.
Where [5] appears, read: median of three independent experiments, read-out: Median IC50.

Where two headings read alike, the source gives them in different places.

A word on the IC50: it is the concentration needed to halve the response being measured.

`Cc1cc(C)c(S(=O)(=O)Nc2ccc3c(c2)c2c(n3S(=O)(=O)c3cc(C)c(C)cc3C)CCCC2=O)cc1C` [TIM146]: the 50% inhibitory concentration (IC50) is 15 µM in experiment [1] (setting [2]), 6.4 µM in experiment [1] (setting [3]), 37.9 µM in experiment [1] (setting [4]) and 15 µM in experiment [1] (setting [5]).

As for `Cc1ccc2nc(N3C(=O)C(=O)C(=C(O)c4ccc5c(c4)C[C@H](C)O5)[C@@H]3c3cccs3)sc2c1` [TIM185], the IC50 in experiment [1] (setting [2]) came to 13.1 µM; in experiment [1] (setting [3]) it was 14.9 µM; in experiment [1] (setting [4]) it was 113 µM; in experiment [1] (setting [5]), 14.9 µM.

With `O=c1c2cnc3nc(-c4ccc(Cl)cc4)nn3c2ccn1Cc1cccnc1` [TIM215], the IC50 came out at 13.9 µM in experiment [1] (setting [2]), 14.6 µM in experiment [1] (setting [3]), 12 µM in experiment [1] (setting [4]) and 13.9 µM in experiment [1] (setting [5]).

In the case of `Cc1cnc(/C=C/c2ccccc2)c2[nH]c3ccccc3c12` [TIM047], the IC50 in experiment [1] (setting [2]) is 16 µM; in experiment [1] (setting [3]) it was 6.8 µM; in experiment [1] (setting [4]) it was 15 µM; in experiment [1] (setting [5]), 15 µM.

As to `CCn1c2ccccc2c2cc([C@H]3Nc4ccccc4NC4=C3C(=O)C[C@@H](c3ccc(OC)cc3)C4)ccc21` [TIM137], the IC50 came to 6.7 µM in experiment [1] (setting [2]), 16.2 µM in experiment [1] (setting [3]), 5.6 µM in experiment [1] (setting [4]) and 6.7 µM in experiment [1] (setting [5]).

With `Cc1ccc(N2NC(=O)/C(=C/c3ccc(-c4ccc5c(c4)C(=O)NC5=O)o3)C2=O)cc1C` [TIM207], the IC50 in experiment [1] (setting [2]) came out at 13.5 µM; in experiment [1] (setting [3]), 7.8 µM; in experiment [1] (setting [4]) it was 8.9 µM; in experiment [1] (setting [5]), 8.9 µM. In addition, the reversibility classification entry on hT1 was “ambiguous”. The “increase in potency as a result of the jump-dilution” value at hT1 (enzyme pre-incubation vs control reaction, 10-fold expected for irreversible inhibitors) was 2.9 fold.

For `Cc1ccc(-n2c(=O)c3cc4c(=O)n(-c5ccc(C)c(C)c5)c(=O)c4c(C(=O)c4ccc(C(=O)O)cc4)c3c2=O)cc1C` [TIM148], the IC50 in experiment [1] (setting [2]) is 6.4 µM; in experiment [1] (setting [3]), 8.5 µM; in experiment [1] (setting [4]), 11.9 µM; in experiment [1] (setting [5]) it was 8.5 µM.

Regarding `O=C(O)c1ccc(-c2ccc(/C=c3\sc4nc5cc(Br)cnc5n4c3=O)o2)cc1` [TIM190], the IC50 in experiment [1] (setting [2]) stood at 10.7 µM; in experiment [1] (setting [3]), 10.7 µM; in experiment [1] (setting [4]), 13.5 µM; in experiment [1] (setting [5]) it was 10.7 µM. For the same molecule, at hT1, the reversibility classification result is “irreversible”.

On to `Cn1c(O)c(N=NC(=O)[C@@H]2COc3cc4ccccc4cc3O2)c2cc(Br)ccc21` [TIM191], for which the IC50 in experiment [1] (setting [2]) came out at 8.5 µM; in experiment [1] (setting [3]), 7.8 µM; in experiment [1] (setting [4]) it was 10 µM; in experiment [1] (setting [5]), 8.5 µM.

With `Cc1cccc(C(=O)Nc2ccc(-c3cc4ccccc4oc3=O)cc2)c1` [TIM003], the IC50 in experiment [1] (setting [2]) stood at 24.9 µM; in experiment [1] (setting [3]), 7.8 µM; in experiment [1] (setting [4]) it was 8.8 µM; in experiment [1] (setting [5]), 8.8 µM.

For `O=C1c2cccc([N+](=O)[O-])c2C(=O)N1c1cccc(-c2nc3ccccc3c(=O)o2)c1` [TIM136], the IC50 in experiment [1] (setting [2]) is 5.7 µM; in experiment [1] (setting [3]) it was 9.9 µM; in experiment [1] (setting [4]) it was 10.2 µM; in experiment [1] (setting [5]) it was 9.9 µM.

As to `N#Cc1c(O)nc(SCC(=O)N2c3ccccc3Sc3ccccc32)nc1-c1ccccc1` [TIM183], the IC50 in experiment [1] (setting [2]) turned out to be 3.6 µM; in experiment [1] (setting [3]), 8.5 µM; in experiment [1] (setting [4]) it was 8.8 µM; in experiment [1] (setting [5]), 8.5 µM.

Turning to `COc1ccc2[nH]c3c(c2c1)CCC[C@H]3NC(=O)COc1ccc2c3c(c(=O)oc2c1)CCCC3` [TIM184], the IC50 in experiment [1] (setting [2]) stood at 5.1 µM; in experiment [1] (setting [3]) it was 7 µM; in experiment [1] (setting [4]) it was 7 µM; in experiment [1] (setting [5]), 7 µM.

With `Cc1ccc(-c2noc(-c3cc(N4CCC(C(N)=O)CC4)nc4ccccc34)n2)cc1` [TIM178], the 50% inhibitory concentration (IC50) is 6.9 µM in experiment [1] (setting [2]), 3.7 µM in experiment [1] (setting [3]), 7.2 µM in experiment [1] (setting [4]) and 6.9 µM in experiment [1] (setting [5]).

Turning to `O=C1Nc2ccc(S(=O)(=O)ON3C(=O)c4cccc5cccc(c45)C3=O)c3cccc1c23` [TIM213], the IC50 was 2.4 µM in experiment [1] (setting [2]), 5 µM in experiment [1] (setting [3]), 10.7 µM in experiment [1] (setting [4]) and 5 µM in experiment [1] (setting [5]).

Consider `CC(C)(C)c1ccc(CC2CCN(C(=O)c3cncn3-c3cccc(-c4cccc5c4sc4ccccc45)c3)CC2)cc1` [TIM181], for which the IC50 in experiment [1] (setting [2]) was found to be 3.5 µM; in experiment [1] (setting [3]), 5.9 µM; in experiment [1] (setting [4]) it was 4.6 µM; in experiment [1] (setting [5]) it was 4.6 µM.

Regarding `COc1cc2c3c(ccc4c5ccc6c7c(cc(OC)c(c1c34)c75)-c1ccccc1C6=O)-c1ccccc1C2=O` [TIM192], the IC50 came out at 13.3 µM in experiment [1] (setting [2]), 13 µM in experiment [1] (setting [3]), 8.1 µM in experiment [1] (setting [4]) and 13 µM in experiment [1] (setting [5]).

Regarding `COc1ccc(N2C(=O)c3ccc(Oc4ccc(Oc5ccc(C(=O)O)cc5)cc4)cc3C2=O)cc1` [TIM050], the half-inhibitory concentration (IC50) in experiment [1] (setting [2]) is 3.7 µM; in experiment [1] (setting [3]), 3 µM; in experiment [1] (setting [4]), 5.3 µM; in experiment [1] (setting [5]), 3.7 µM.

The values are drawn from US20230278957A1, “TREX1 INHIBITORS AND USES THEREOF” (WAKE FOREST UNIVERSITY HEALTH SCIENCES, priority 2020, published 2023).
